Measured values: US7300645B2, “Oral composition comprising isomalt and remineralizing enhancing agent” (Sunstar Kabushiki Kaisha, priority 1998, dated 2007)

Assay: Remineralizing ability 1: bovine enamel block with artificial caries immersed in sugar test solution
Details: sugar 20% in 3.0 mM calcium ion / 1.8 mM phosphate ion, immersed ten days
Procedure: The remineralization effect of the sugars was evaluated in an in vitro test using a bovine tooth according to the procedures described in D. J. White et al., Caries Res., 21, 228 (1987).
1. An enamel section having 4 mm length×3 mm width was obtained from the bovine tooth. The section was embedded in a dental resin to obtain an enamel block.
2. An enamel varnish was applied to a portion of approximately ⅓ of the surface of the enamel block in order not to cause the demineralization of that portion. Then, the enamel block was demineralized with a demineralizing solution containing 50% of saturated hydroxyapatite/0.1M lactic acid/pH 5.0 to prepare an artificial caries.
3. An enamel varnish was applied to a portion of approximately ⅔ of the surface of the treated enamel block in order not to cause the remineralization of that portion. The enamel block was immersed for ten days in a test solution prepared by adding the test sugar into an aqueous solution containing 3.0 mM calcium ion and 1.8 mM phosphate ion so that the concentration of the sugar became 20%, to perform the remineralization treatment.
4. Three thin sections having approximately 500 μm in thickness were prepared from the enamel block. The central portion of the thin sections was ground so that the thickness became approximately 100 μm using a double-side polishing machine.
5. The X-ray photograph was taken of the thin section prepared in the fourth step. The mineral amounts of the demineralized portion and the remineralized portion were calculated based on the brightness of the each portion and a distance from the surface using an image processor. The mineral amount difference between the demineralized and remineralized portions was expressed as a remineralization value. […] A control test was performed in a similar manner to that described above, except that the test solution containing only 3.0 mM calcium ion and 1.8 mM phosphate ion but not containing the sugar was used.
Further, a similar test was performed in which sodium fluoride was added to the test solution to 2 ppm in terms of fluoride ion.

[1] = sodium fluoride added to 2 ppm fluoride ion

Row | Compound | Remineralization value [1] | Remineralization value (system not containing fluoride)
1 | OC[C@@H](O)[C@@H](O)CO [Erythritol] | 1330 Vol. % μm | 602 Vol. % μm
2 | OC[C@@H](O)[C@@H](O)[C@H](O)[C@H](O)CO [Mannitol] | 1377 Vol. % μm | 640 Vol. % μm
3 | OC[C@@H](O)[C@@H](O)[C@H](O)[C@@H](O)CO [Sorbitol] | 1358 Vol. % μm | 645 Vol. % μm
4 | OC[C@H]1O[C@H](O[C@H]2O[C@H](CO)[C@@H](O)[C@H](O)[C@H]2O)[C@H](O)[C@@H](O)[C@@H]1O [Trehalose] | 1205 Vol. % μm | 715 Vol. % μm
5 | OC[C@@H](O)[C@H](O)[C@@H](O)CO [Xylitol] | 1636 Vol. % μm | 416 Vol. % μm
6 | α-D-glucopyranosyl-1,6-mannitol, its isomer, α-D-glucopyranosyl-1,6-sorbitol or a mixture thereof [Palatinit] | 2374 Vol. % μm | 1057 Vol. % μm
